Assay results published in ChEMBL document CHEMBL4619711, “Medicinal Chemistry of Inhibiting RING-Type E3 Ubiquitin Ligases” (J Med Chem, 2020).

Columns and labels:
[1] = target: T1, E3 ubiquitin-protein ligase XIAP (Homo sapiens, UniProt P98170); experiment: Inhibition of XIAP-BIR2 domain (unknown origin)
[2] = target: T1, E3 ubiquitin-protein ligase XIAP; experiment: Inhibition of XIAP-BIR3 domain (unknown origin)
[3] = Stability in rat blood assessed as parent compound remaining after 4 hrs; type: ADME, tissue-based; conditions: read-out: Stability
[4] = Plasma clearance in mouse at iv dose; type: ADME, organism-based
[5] = Oral bioavailability in mouse; type: ADME, organism-based; conditions: in vivo
[6] = target: von Hippel-Lindau disease tumor suppressor (Homo sapiens, UniProt P40337); experiment: Inhibition of VHL (unknown origin) by fluorescence polarization assay
Sequence of von Hippel-Lindau disease tumor suppressor (P40337 whole entry): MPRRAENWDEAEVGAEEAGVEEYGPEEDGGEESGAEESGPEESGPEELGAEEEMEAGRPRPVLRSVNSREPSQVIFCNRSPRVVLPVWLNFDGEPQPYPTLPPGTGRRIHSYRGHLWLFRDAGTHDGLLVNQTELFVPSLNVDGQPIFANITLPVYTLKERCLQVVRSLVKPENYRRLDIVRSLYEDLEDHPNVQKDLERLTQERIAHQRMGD

[7] = test system: SJSA-1; experiment: cells; conditions: Homo sapiens

T1 sequence (P98170 whole entry, the tested form may be a part): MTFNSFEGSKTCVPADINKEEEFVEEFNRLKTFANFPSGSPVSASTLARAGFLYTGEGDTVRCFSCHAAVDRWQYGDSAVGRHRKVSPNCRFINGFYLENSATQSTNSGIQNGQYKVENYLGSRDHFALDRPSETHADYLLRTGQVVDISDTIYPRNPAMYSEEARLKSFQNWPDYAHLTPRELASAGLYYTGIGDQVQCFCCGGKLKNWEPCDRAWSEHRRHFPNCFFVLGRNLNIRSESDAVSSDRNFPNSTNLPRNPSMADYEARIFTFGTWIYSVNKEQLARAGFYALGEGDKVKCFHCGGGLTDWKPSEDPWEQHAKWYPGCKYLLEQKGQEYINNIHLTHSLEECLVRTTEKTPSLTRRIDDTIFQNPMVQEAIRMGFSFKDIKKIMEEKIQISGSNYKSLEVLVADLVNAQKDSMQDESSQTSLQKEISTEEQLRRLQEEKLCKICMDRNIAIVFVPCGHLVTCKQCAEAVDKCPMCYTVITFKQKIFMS

SMILES | IC50 [1] [nM] | IC50 [2] [nM] | remaining at 4 h [3] [%] | clearance [4] [mL/min/kg] | also measured
CN[C@@H](C)C(=O)N[C@H]1CCc2ccccc2N(Cc2c(OC)ccc3cc(Br)ccc23)C1=O | 194 | > 54000 | 40 | 155 | 
CN[C@@H](C)C(=O)N[C@@H]1C(=O)N(Cc2c(C)ccc3ccccc23)c2ccc(C#N)cc2N(C(C)=O)[C@H]1C |  |  |  | 4.3 | bioavailability [5]: 28%
CN[C@@H](C)C(=O)N[C@H]1COc2ccccc2N(Cc2c(OC)ccc3cc(Br)ccc23)C1=O |  |  | 7 | 521 | 
Cc1ncsc1-c1ccc(CNC(=O)[C@@H]2C[C@@H](O)CN2C(=O)c2cccc(N)c2C)cc1 |  |  |  |  | IC50 [6]: 670 nM
CN[C@@H](C)C(=O)NC1C(=O)N(Cc2c(C#N)n(-c3ccccc3C#N)c3ccccc23)c2ccccc2CC12CCOCC2 (some centres undefined) | 39 | 3100 |  | 41 | 
CN[C@@H](C)C(=O)NC1C(=O)N(Cc2c(OC)ccc3cc(Br)ccc23)c2ccccc2CC12CCOCC2 (some centres undefined) | 65 | 24000 | 88 | 60 | 
Cc1cc(CC(=O)N2C[C@H](O)C[C@H]2C(=O)NCc2ccccc2Cl)on1 |  |  |  |  | IC50 [6]: 117000 nM
CC(C)(C)C[C@@H]1N[C@@H](C(=O)N[C@H]2CC[C@H](O)CC2)[C@H](c2cccc(Cl)c2F)[C@@]12C(=O)Nc1cc(Cl)ccc12 |  |  |  |  | IC50 [7]: 92 nM
CC(C)(C)C[C@@H]1N[C@@H](C(=O)NCCN2CCOCC2)[C@H](c2cccc(Cl)c2F)[C@@]12C(=O)Nc1cc(Cl)ccc12 |  |  |  |  | IC50 [7]: 500 nM
